Data as given in article PMC5421785, “Citrullination only infrequently impacts peptide binding to HLA class II MHC” (PLoS ONE, 2017).
Where two headings read alike, the source gives them in different places. Square brackets hold non-standard residues; d marks the D form. Ends that are not written are not given here. Peptide text beside a SMILES is read from it. Cit = NC(=O)NCCC[C@H](N)C(=O)O

What was measured:
HLA-DRB1*01:01 = target: T1, HLA-DRB1*01:01 (Homo sapiens, UniProt P01903+P01911, A100R/D57E/F55L/F60I/F76Y/I96L/L162R/M171V/P40L/Q125E/R42F/V115G/Y59C); experiment: HLA class II peptide binding, inhibition of radiolabeled peptide binding to purified MHC; settings: for DRB1*01:01 binding capacity, WT/cit ratio: ratio of WT IC50 to Cit IC50
T1 construct: EBV transformed homozygous cell lines were used as sources of MHC molecules; endogenous in cells; host or cells: EBV transformed homozygous cell lines

HLA-DRB1*04:01 = target: T2, HLA-DRB1*04:01 (Homo sapiens, UniProt P01903+P01911, A100K/A169T/F76Y/I96L/K127E/L162R/M171V/N62H/P40V/Q125Y/R42H/S133A/S149N/S66Y/V115G/V209L/W38E); experiment: as above; settings: for DRB1*04:01 binding capacity, WT/cit ratio: ratio of WT IC50 to Cit IC50
T2 construct: EBV transformed homozygous cell lines were used as sources of MHC molecules; endogenous in cells; host or cells: EBV transformed homozygous cell lines

[1] = read-out: DRB1*01:01 binding capacity, WT peptide (IC50 nM)
[2] = read-out: DRB1*04:01 binding capacity, WT peptide (IC50 nM)
[3] = wild-type (unmodified Arg) 15-mer peptide, purified HLA-DRB1*01:01, read-out: DRB1*01:01 binding capacity, WT peptide (IC50 nM)
[4] = wild-type (unmodified Arg) 15-mer peptide, purified HLA-DRB1*04:01, read-out: DRB1*04:01 binding capacity, WT peptide (IC50 nM)
[5] = citrullinated 15-mer (X), purified MHC, inhibition of radiolabeled peptide binding, dash = IC50 >40,000 nM, read-out: DRB1*01:01 binding capacity, Cit peptide (IC50 nM)
[6] = citrullinated 15-mer (X), purified MHC, inhibition of radiolabeled peptide binding, dash = IC50 >40,000 nM, read-out: DRB1*04:01 binding capacity, Cit peptide (IC50 nM)
[7] = citrullinated 15-mer peptide (X = citrulline), purified HLA-DRB1*01:01, read-out: DRB1*01:01 binding capacity, Cit peptide (IC50 nM)
[8] = citrullinated 15-mer peptide (X = citrulline), purified HLA-DRB1*04:01, read-out: DRB1*04:01 binding capacity, Cit peptide (IC50 nM)
[9] = >1 = citrullination increases binding

DNASLARLDLERKVE [Vimentin 211 WT]
IC50 (HLA-DRB1*01:01; [1]): 7850 nM | IC50 (HLA-DRB1*04:01; [2]): 18800 nM

CC[C@H](C)[C@H](NC(=O)[C@H](CCC(=O)O)NC(=O)[C@H](CC(=O)O)NC(=O)[C@@H](N)CCC(N)=O)C(=O)N[C@@H](CCC(N)=O)C(=O)N[C@@H](CC(N)=O)C(=O)N[C@@H](CCSC)C(=O)N[C@@H](CCCCN)C(=O)N[C@@H](CCC(=O)O)C(=O)N[C@@H](CCC(=O)O)C(=O)N[C@@H](CCSC)C(=O)N[C@@H](C)C(=O)N[C@@H](CCCNC(=N)N)C(=O)N[C@@H](Cc1c[nH]cn1)C(=O)N[C@@H](CC(C)C)C(=O)O [Vimentin 366 WT]
IC50 (HLA-DRB1*01:01; [3]): 7110 nM | IC50 (HLA-DRB1*04:01; [4]): 4550 nM

CSCC[C@H](NC(=O)[C@H](CCC(=O)O)NC(=O)[C@H](CCC(=O)O)NC(=O)[C@@H](N)CCC(=O)O)C(=O)N[C@@H](CCCNC(=N)N)C(=O)N[C@@H](CCC(=O)O)C(=O)N[C@@H](CC(C)C)C(=O)N[C@@H](CCCNC(N)=O)C(=O)N[C@@H](CCCNC(=N)N)C(=O)N[C@@H](CCC(N)=O)C(=O)N[C@H](C(=O)N[C@@H](CC(=O)O)C(=O)N[C@@H](CCC(N)=O)C(=O)N[C@@H](CC(C)C)C(=O)N[C@H](C(=O)O)[C@@H](C)O)C(C)C [EEEMRELXRQVDQLT] (H-EEEMREL[Cit]RQVDQLT-OH)
IC50 (HLA-DRB1*01:01; [5]): 1490 nM | IC50 (HLA-DRB1*04:01; [6]): 4740 nM

CC(C)C[C@H](NC(=O)[C@H](CO)NC(=O)[C@H](CCCNC(=N)N)NC(=O)[C@H](CO)NC(=O)[C@@H](NC(=O)[C@H](CO)NC(=O)[C@@H]1CCCN1)[C@@H](C)O)C(=O)N[C@@H](Cc1ccc(O)cc1)C(=O)N[C@@H](C)C(=O)N[C@@H](CO)C(=O)N[C@@H](CO)C(=O)N1CCC[C@H]1C(=O)NCC(=O)NCC(=O)N[C@H](C(=O)O)C(C)C [Vimentin 46 WT]
IC50 (HLA-DRB1*01:01; [1]): 290 nM | IC50 (HLA-DRB1*04:01; [2]): 1050 nM

C[C@H](NC(=O)[C@@H](NC(=O)CNC(=O)[C@@H]1CCCN1C(=O)CNC(=O)CN)[C@@H](C)O)C(=O)N[C@@H](CO)C(=O)N[C@@H](CCCNC(N)=O)C(=O)N1CCC[C@H]1C(=O)N[C@@H](CO)C(=O)N[C@@H](CO)C(=O)N[C@@H](CO)C(=O)N[C@@H](CCCNC(=N)N)C(=O)N[C@@H](CO)C(=O)N[C@@H](Cc1ccc(O)cc1)C(=O)O [GGPGTASXPSSSRSY] (H-GGPGTAS[Cit]PSSSRSY-OH)
IC50 (HLA-DRB1*01:01; [5]): 10400 nM | IC50 (HLA-DRB1*04:01; [6]): > 40000 nM

CSCC[C@H](NC(=O)[C@H](CCCNC(N)=O)NC(=O)[C@H](CCCNC(=N)N)NC(=O)[C@@H](N)Cc1ccc(O)cc1)C(=O)N[C@@H](Cc1ccccc1)C(=O)NCC(=O)NCC(=O)N1CCC[C@H]1C(=O)NCC(=O)N[C@H](C(=O)N[C@@H](C)C(=O)N[C@@H](CO)C(=O)N[C@@H](CCCNC(=N)N)C(=O)N1CCC[C@H]1C(=O)N[C@@H](CO)C(=O)O)[C@@H](C)O [YRXMFGGPGTASRPS] (H-YR[Cit]MFGGPGTASRPS-OH)
IC50 (HLA-DRB1*01:01; [5]): 512 nM | IC50 (HLA-DRB1*04:01; [6]): 15800 nM

DALKGTNESLERQMR [Vimentin 331 WT]
IC50 (HLA-DRB1*01:01; [3]): 39900 nM | IC50 (HLA-DRB1*04:01; [4]): 18000 nM

DNLAEDIMRLREKLQ [Vimentin 176 WT]
IC50 (HLA-DRB1*01:01; [1]): 4570 nM | IC50 (HLA-DRB1*04:01; [2]): > 40000 nM

GDRGEAGAQGPMGPS [Collagen 1086 WT]
IC50 (HLA-DRB1*01:01; [3]): 9550 nM | IC50 (HLA-DRB1*04:01; [4]): > 40000 nM

CC[C@H](C)[C@H](NC(=O)[C@H](CCCCN)NC(=O)[C@H](CC(N)=O)NC(=O)[C@H](CCC(N)=O)NC(=O)[C@H](CCC(N)=O)NC(=O)[C@H](CCC(=O)O)NC(=O)[C@H](CC(C)C)NC(=O)[C@H](Cc1ccccc1)NC(=O)[C@H](CCCNC(=N)N)NC(=O)[C@@H](N)C(C)C)C(=O)N[C@@H](CC(C)C)C(=O)N[C@@H](CC(C)C)C(=O)N[C@@H](C)C(=O)N[C@@H](CCC(=O)O)C(=O)N[C@@H](CC(C)C)C(=O)O [Vimentin 121 WT]
IC50 (HLA-DRB1*01:01; [1]): 5.7 nM | IC50 (HLA-DRB1*04:01; [2]): 513 nM

CSCC[C@H](NC(=O)[C@H](CCC(=O)O)NC(=O)[C@H](CCC(=O)O)NC(=O)[C@H](CCC(N)=O)NC(=O)[C@H](CC(C)C)NC(=O)[C@H](CCCCN)NC(=O)[C@H](CCC(=O)O)NC(=O)[C@@H](N)CCCNC(=N)N)C(=O)N[C@@H](CC(C)C)C(=O)N[C@@H](CCC(N)=O)C(=O)N[C@@H](CCCNC(N)=O)C(=O)N[C@@H](CCC(=O)O)C(=O)N[C@@H](CCC(=O)O)C(=O)N[C@@H](C)C(=O)N[C@@H](CCC(=O)O)C(=O)O [REKLQEEMLQXEEAE] (H-REKLQEEMLQ[Cit]EEAE-OH)
IC50 (HLA-DRB1*01:01; [5]): 13200 nM | IC50 (HLA-DRB1*04:01; [6]): > 40000 nM

CC(C)C[C@H](NC(=O)CNC(=O)[C@@H]1CCCN1C(=O)[C@H](Cc1ccccc1)NC(=O)CNC(=O)[C@H](CCCNC(=N)N)NC(=O)[C@H](CCC(=O)O)NC(=O)CNC(=O)[C@H](CCCNC(N)=O)NC(=O)[C@H](CCC(N)=O)NC(=O)CNC(=O)[C@@H]1CCCN1)C(=O)N1CCC[C@H]1C(=O)NCC(=O)N1CCC[C@H]1C(=O)O [PGQXGERGFPGLPGP] (H-PGQ[Cit]GERGFPGLPGP-OH)
IC50 (HLA-DRB1*01:01; [7]): 6470 nM | IC50 (HLA-DRB1*04:01; [8]): > 40000 nM

CC(C)C[C@H](NC(=O)[C@H](CC(C)C)NC(=O)[C@@H](NC(=O)[C@H](CC(C)C)NC(=O)[C@H](CC(C)C)NC(=O)[C@@H](N)C(C)C)[C@@H](C)O)C(=O)N[C@H](C(=O)N[C@@H](C)C(=O)N[C@@H](C)C(=O)N[C@H](C(=O)N[C@@H](CC(C)C)C(=O)N[C@@H](CCCNC(N)=O)C(=O)N[C@@H](CS)C(=O)N[C@@H](CCC(N)=O)C(=O)NCC(=O)O)C(C)C)C(C)C [VLLTLLVAAVLXCQG] (H-VLLTLLVAAVL[Cit]CQG-OH)
IC50 (HLA-DRB1*01:01; [7]): 29 nM | IC50 (HLA-DRB1*04:01; [8]): > 40000 nM

CC(C)C[C@H](NC(=O)CNC(=O)[C@@H]1CCCN1C(=O)[C@H](Cc1ccccc1)NC(=O)CNC(=O)[C@H](CCCNC(N)=O)NC(=O)[C@H](CCC(=O)O)NC(=O)CNC(=O)[C@H](CCCNC(=N)N)NC(=O)[C@H](CCC(N)=O)NC(=O)CNC(=O)[C@@H]1CCCN1)C(=O)N1CCC[C@H]1C(=O)NCC(=O)N1CCC[C@H]1C(=O)O [PGQRGEXGFPGLPGP] (H-PGQRGE[Cit]GFPGLPGP-OH)
IC50 (HLA-DRB1*01:01; [7]): 10500 nM | IC50 (HLA-DRB1*04:01; [8]): > 40000 nM

CC(C)C[C@H](NC(=O)[C@H](C)NC(=O)[C@H](CC(=O)O)NC(=O)[C@H](CC(N)=O)NC(=O)[C@H](CC(N)=O)NC(=O)[C@H](CCCNC(N)=O)NC(=O)[C@H](CC(N)=O)NC(=O)[C@H](C)NC(=O)[C@H](C)N)C(=O)N[C@@H](CCCNC(=N)N)C(=O)N[C@@H](CCC(N)=O)C(=O)N[C@@H](C)C(=O)N[C@@H](CCCCN)C(=O)N[C@@H](CCC(N)=O)C(=O)N[C@@H](CCC(=O)O)C(=O)O [AANXNNDALRQAKQE] (H-AAN[Cit]NNDALRQAKQE-OH; N-terminus and C-terminus assumed)
IC50 (HLA-DRB1*01:01; [5]): > 40000 nM | DRB1*01:01 binding capacity, WT/cit ratio (HLA-DRB1*01:01): 1.0 | IC50 (HLA-DRB1*04:01; [6]): > 40000 nM | DRB1*04:01 binding capacity, WT/cit ratio (HLA-DRB1*04:01): 1.0

QGKSRLGDLYEEEMR [Vimentin 141 WT]
IC50 (HLA-DRB1*01:01; [1]): 34600 nM | IC50 (HLA-DRB1*04:01; [2]): > 40000 nM

SPGGVYATRSSAVRL [Vimentin 56 WT]
IC50 (HLA-DRB1*01:01; [1]): 7.2 nM | IC50 (HLA-DRB1*04:01; [2]): 1150 nM

CC(C)[C@H](NC(=O)[C@H](CC(=O)O)NC(=O)CNC(=O)[C@H](CCCNC(N)=O)NC(=O)[C@@H](N)CC(=O)O)C(=O)NCC(=O)N[C@@H](CCC(=O)O)C(=O)N[C@@H](CCCCN)C(=O)NCC(=O)N1CCC[C@H]1C(=O)N[C@@H](CCC(=O)O)C(=O)NCC(=O)N[C@@H](C)C(=O)N1CCC[C@H]1C(=O)NCC(=O)O [DXGDVGEKGPEGAPG] (H-D[Cit]GDVGEKGPEGAPG-OH)
IC50 (HLA-DRB1*01:01; [7]): 2270 nM | IC50 (HLA-DRB1*04:01; [8]): 33300 nM

CC[C@H](C)[C@H](NC(=O)[C@H](CCCNC(N)=O)NC(=O)[C@H](CS)NC(=O)[C@@H]1CCCN1)C(=O)N[C@@H](CS)C(=O)N[C@H](C(=O)N[C@@H](CS)C(=O)N[C@@H](CC(=O)O)C(=O)N[C@H](C(=O)NCC(=O)N[C@H](C(=O)N[C@H](C(=O)N[C@@H](CC(C)C)C(=O)N[C@@H](CS)C(=O)N[C@@H](CC(=O)O)C(=O)O)C(C)C)[C@@H](C)O)[C@@H](C)O)C(C)C [PCXICVCDTGTVLCD] (H-PC[Cit]ICVCDTGTVLCD-OH; N-terminus and C-terminus assumed)
DRB1*01:01 binding capacity, WT/cit ratio (HLA-DRB1*01:01; [9]): 0.463 | DRB1*04:01 binding capacity, WT/cit ratio (HLA-DRB1*04:01; [9]): 1.2

PGQRGERGFPGLPGP [Collagen 986 WT]
IC50 (HLA-DRB1*01:01; [3]): 743 nM | IC50 (HLA-DRB1*04:01; [4]): > 40000 nM

NDRFANYIDKVRFLE [Vimentin 111 WT]
IC50 (HLA-DRB1*01:01; [1]): 862 nM | IC50 (HLA-DRB1*04:01; [2]): 16400 nM
